Data: patent US20260284018A1, “DUAL INHIBITORS OF DYRK1A AND 5-HT2 FOR TREATING A BRAIN DISORDER” (THE REGENTS OF THE UNIVERSITY OF CALIFORNIA, priority 2023, published 2026)

Tests used:
Assay in all cases: KINOMEscan scanEDGE
Format in all cases: binding
Conditions in all cases: read-out: Percent Control
MAP3K4 = target: T1, MAP3K4 (Homo sapiens, UniProt Q9Y6R4)
T1 construct: purchased Eurofins DiscoverX (KINOMEscan scanEDGE service)
Experimental: (§1) Kinome Scan. Compound HTW_A_8 fumarate was screened against 97 kinases at a single concentration of 10 μM at Eurofins DiscoverX using their KINOMEscan™ scanEDGE assay. The results are reported as the % activity relative to DMSO control, where lower values indicate higher affinity. See Table 1 for the full kinome profile.

PIK3CA = target: T2, PIK3CA (Homo sapiens, UniProt P42336)
T2 construct: purchased Eurofins DiscoverX (KINOMEscan scanEDGE service)
Experimental: as §1

MKNK2 = target: T3, MKNK2 (Homo sapiens, UniProt Q9HBH9)
T3 construct: purchased Eurofins DiscoverX (KINOMEscan scanEDGE service)
Experimental: as §1

BTK = target: T4, BTK (Homo sapiens, UniProt Q06187)
T4 construct: purchased Eurofins DiscoverX
Experimental: as §1

CDK11 = target: T5, CDK11 (Homo sapiens, UniProt Q9BWU1)
T5 construct: purchased Eurofins DiscoverX
T5 sequence (Q9BWU1 whole entry): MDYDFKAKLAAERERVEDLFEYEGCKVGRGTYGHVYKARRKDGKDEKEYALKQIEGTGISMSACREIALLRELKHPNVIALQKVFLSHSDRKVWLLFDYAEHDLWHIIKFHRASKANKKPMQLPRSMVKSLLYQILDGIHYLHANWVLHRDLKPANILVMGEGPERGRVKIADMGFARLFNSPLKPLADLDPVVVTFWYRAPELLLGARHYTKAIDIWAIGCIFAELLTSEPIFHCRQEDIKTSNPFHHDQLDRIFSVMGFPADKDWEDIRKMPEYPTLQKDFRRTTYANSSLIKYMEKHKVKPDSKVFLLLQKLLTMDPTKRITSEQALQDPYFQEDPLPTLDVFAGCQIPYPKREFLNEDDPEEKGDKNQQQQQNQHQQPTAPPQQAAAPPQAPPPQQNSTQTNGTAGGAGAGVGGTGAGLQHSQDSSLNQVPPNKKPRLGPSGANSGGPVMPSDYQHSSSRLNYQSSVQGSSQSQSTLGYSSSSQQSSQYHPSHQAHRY
Experimental: as §1

CHEK1 = target: T6, CHEK1 (Homo sapiens, UniProt O14757)
T6 construct: purchased Eurofins DiscoverX
Experimental: as §1

PAK4 = target: T7, PAK4 (Homo sapiens, UniProt O96013)
T7 construct: purchased Eurofins DiscoverX (KINOMEscan scanEDGE service)
Experimental: as §1

BRAF = target: T8, BRAF (Homo sapiens, UniProt P15056)
T8 construct: purchased Eurofins DiscoverX
T8 sequence (P15056 whole entry): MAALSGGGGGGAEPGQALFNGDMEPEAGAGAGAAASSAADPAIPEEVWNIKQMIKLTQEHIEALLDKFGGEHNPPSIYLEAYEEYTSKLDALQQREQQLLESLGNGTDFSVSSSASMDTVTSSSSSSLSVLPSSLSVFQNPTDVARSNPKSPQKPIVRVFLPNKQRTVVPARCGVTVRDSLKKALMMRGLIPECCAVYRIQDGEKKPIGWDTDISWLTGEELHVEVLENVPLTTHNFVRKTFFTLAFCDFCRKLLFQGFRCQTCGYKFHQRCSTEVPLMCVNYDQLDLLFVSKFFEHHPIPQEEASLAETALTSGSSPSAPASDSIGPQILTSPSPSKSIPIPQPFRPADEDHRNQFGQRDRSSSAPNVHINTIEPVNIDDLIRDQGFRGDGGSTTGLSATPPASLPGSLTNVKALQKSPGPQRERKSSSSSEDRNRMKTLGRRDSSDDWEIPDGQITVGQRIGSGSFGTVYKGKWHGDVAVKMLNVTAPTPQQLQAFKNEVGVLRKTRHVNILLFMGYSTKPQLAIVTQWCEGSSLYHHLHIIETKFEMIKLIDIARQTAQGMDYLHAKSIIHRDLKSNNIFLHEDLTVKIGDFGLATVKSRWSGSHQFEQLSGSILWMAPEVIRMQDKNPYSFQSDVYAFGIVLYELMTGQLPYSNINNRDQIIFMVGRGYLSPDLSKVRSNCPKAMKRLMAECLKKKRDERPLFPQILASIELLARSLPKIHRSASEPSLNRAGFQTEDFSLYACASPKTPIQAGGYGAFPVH
Experimental: as §1

PLK1 = target: T9, PLK1 (Homo sapiens, UniProt P53350)
T9 construct: purchased Eurofins DiscoverX KINOMEscan scanEDGE
Experimental: as §1

AXL = target: T10, AXL (Homo sapiens, UniProt P30530)
T10 construct: purchased Eurofins DiscoverX
Experimental: as §1

CSNK1G2 = target: T11, CSNK1G2 (Homo sapiens, UniProt P78368)
T11 construct: purchased Eurofins DiscoverX
Experimental: as §1

TRKA = target: T12, TRKA (Homo sapiens, UniProt P04629)
T12 construct: purchased Eurofins DiscoverX KINOMEscan scanEDGE
Experimental: as §1

VEGFR2 = target: T13, VEGFR2 (Homo sapiens, UniProt P35968)
T13 construct: purchased Eurofins DiscoverX KINOMEscan scanEDGE
Experimental: as §1

SRC = target: T14, SRC (Homo sapiens, UniProt P12931)
T14 construct: purchased Eurofins DiscoverX KINOMEscan scanEDGE
Experimental: as §1

PKAC-alpha = target: T15, PKAC-alpha (Homo sapiens, UniProt P17612)
T15 construct: purchased Eurofins DiscoverX KINOMEscan scanEDGE
Experimental: as §1

CDK2 = target: T16, CDK2 (Homo sapiens, UniProt P24941)
T16 construct: purchased Eurofins DiscoverX
Experimental: as §1

PDGFRB = target: T17, PDGFRB (Homo sapiens, UniProt P09619)
T17 construct: purchased Eurofins DiscoverX (KINOMEscan scanEDGE service)
T17 sequence (P09619 33-1106): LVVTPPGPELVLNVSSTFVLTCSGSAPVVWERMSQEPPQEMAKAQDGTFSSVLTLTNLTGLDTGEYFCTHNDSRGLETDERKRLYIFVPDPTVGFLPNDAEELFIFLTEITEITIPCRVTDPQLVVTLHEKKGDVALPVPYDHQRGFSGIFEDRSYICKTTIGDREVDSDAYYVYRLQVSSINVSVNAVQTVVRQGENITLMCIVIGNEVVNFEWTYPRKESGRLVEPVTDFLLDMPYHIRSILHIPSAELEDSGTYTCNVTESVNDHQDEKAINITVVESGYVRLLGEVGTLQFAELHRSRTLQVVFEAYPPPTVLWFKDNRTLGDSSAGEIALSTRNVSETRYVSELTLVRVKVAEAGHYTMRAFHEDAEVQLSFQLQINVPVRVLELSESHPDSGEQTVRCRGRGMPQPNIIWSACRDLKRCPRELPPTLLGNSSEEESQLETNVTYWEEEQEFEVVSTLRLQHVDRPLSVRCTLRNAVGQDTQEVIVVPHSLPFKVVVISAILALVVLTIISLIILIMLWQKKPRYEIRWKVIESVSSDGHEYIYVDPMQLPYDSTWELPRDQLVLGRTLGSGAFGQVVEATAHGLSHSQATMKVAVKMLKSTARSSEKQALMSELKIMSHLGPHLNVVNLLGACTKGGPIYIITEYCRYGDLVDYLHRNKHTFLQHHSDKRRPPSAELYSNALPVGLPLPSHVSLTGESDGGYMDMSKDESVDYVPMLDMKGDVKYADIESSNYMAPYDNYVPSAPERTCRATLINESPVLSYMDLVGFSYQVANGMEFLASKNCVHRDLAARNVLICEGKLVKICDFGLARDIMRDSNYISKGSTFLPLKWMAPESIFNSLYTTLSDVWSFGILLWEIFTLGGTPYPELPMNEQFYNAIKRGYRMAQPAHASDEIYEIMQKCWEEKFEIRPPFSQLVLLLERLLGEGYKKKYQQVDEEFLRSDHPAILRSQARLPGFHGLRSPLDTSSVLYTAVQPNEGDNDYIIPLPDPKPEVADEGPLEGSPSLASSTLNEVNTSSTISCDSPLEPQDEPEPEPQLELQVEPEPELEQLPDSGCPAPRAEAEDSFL
Experimental: as §1

PIM3 = target: T18, PIM3 (Homo sapiens, UniProt Q86V86)
T18 construct: purchased Eurofins DiscoverX (KINOMEscan scanEDGE service)
Experimental: as §1

PDPK1 = target: T19, PDPK1 (Homo sapiens, UniProt O15530)
T19 construct: purchased Eurofins DiscoverX (KINOMEscan scanEDGE service)
Experimental: as §1

AURKB = target: T20, AURKB (Homo sapiens, UniProt Q96GD4)
T20 construct: purchased Eurofins DiscoverX
Experimental: as §1

ERBB2 = target: T21, ERBB2 (Homo sapiens, UniProt P04626)
T21 construct: purchased Eurofins DiscoverX
Experimental: as §1

TGFBR1 = target: T22, TGFBR1 (Homo sapiens, UniProt P36897)
T22 construct: purchased Eurofins DiscoverX KINOMEscan scanEDGE
Experimental: as §1

FLT3 = target: T23, FLT3 (Homo sapiens, UniProt P36888)
T23 construct: purchased Eurofins DiscoverX
Experimental: as §1

AKT1 = target: T24, AKT1 (Homo sapiens, UniProt P31749)
T24 construct: purchased Eurofins DiscoverX
Experimental: as §1

ALK = target: T25, ALK (Homo sapiens, UniProt Q9UM73)
T25 construct: purchased Eurofins DiscoverX
Experimental: as §1

FAK = target: T26, FAK (Homo sapiens, UniProt Q05397)
T26 construct: purchased Eurofins DiscoverX
Experimental: as §1

ROCK2 = target: T27, ROCK2 (Homo sapiens, UniProt O75116)
T27 construct: purchased Eurofins DiscoverX KINOMEscan scanEDGE
T27 sequence (O75116 whole entry): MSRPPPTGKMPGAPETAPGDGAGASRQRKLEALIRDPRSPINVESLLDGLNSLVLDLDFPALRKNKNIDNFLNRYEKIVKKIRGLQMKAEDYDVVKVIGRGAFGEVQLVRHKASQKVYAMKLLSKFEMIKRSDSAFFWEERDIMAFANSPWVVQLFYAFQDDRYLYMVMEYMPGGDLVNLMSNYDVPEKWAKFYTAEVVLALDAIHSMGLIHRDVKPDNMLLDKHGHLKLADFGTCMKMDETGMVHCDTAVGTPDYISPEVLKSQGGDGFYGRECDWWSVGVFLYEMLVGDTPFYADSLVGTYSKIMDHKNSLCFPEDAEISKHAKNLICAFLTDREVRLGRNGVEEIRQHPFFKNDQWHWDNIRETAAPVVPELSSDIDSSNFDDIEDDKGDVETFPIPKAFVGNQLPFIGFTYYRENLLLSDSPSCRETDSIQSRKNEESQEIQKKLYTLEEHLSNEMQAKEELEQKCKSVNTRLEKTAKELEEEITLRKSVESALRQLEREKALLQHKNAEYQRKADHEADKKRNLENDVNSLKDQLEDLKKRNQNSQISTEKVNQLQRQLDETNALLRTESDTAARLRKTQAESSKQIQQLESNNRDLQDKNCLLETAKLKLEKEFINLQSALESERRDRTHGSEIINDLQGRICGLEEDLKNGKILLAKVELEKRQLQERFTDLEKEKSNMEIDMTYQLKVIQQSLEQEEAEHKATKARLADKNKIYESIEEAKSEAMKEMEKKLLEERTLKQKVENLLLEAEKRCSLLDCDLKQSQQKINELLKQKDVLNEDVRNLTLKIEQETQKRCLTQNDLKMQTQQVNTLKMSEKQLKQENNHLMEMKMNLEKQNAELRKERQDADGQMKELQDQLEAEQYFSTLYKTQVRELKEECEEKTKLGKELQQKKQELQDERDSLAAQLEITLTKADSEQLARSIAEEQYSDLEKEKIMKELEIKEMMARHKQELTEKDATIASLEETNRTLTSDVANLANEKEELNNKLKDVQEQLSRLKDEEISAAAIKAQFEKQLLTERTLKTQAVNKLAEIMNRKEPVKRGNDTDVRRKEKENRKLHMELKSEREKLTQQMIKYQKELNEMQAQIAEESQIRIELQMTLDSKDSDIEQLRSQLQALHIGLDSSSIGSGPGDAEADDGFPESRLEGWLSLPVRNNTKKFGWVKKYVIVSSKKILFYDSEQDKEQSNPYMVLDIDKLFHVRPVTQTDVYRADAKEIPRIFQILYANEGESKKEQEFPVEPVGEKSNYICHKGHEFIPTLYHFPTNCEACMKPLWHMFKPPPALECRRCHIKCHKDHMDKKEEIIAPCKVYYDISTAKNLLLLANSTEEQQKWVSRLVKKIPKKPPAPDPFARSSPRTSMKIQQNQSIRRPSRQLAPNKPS
Experimental: as §1

KIT(D816V) = target: T28, KIT(D816V) (Homo sapiens, UniProt P10721, D816V)
T28 construct: purchased Eurofins DiscoverX
Experimental: as §1

[1] = target: T29, RSK2(Kin.Dom.1-N-terminal) (Homo sapiens, UniProt P51812)
T29 construct: RSK2(Kin.Dom.1-N-terminal); purchased Eurofins DiscoverX KINOMEscan scanEDGE
Experimental: as §1

EGFR = target: T30, EGFR (Homo sapiens, UniProt P00533)
T30 construct: purchased Eurofins DiscoverX
Experimental: as §1

SRPK3 = target: T31, SRPK3 (Homo sapiens, UniProt Q9UPE1)
T31 construct: purchased Eurofins DiscoverX KINOMEscan scanEDGE
Experimental: as §1

IKK-beta = target: T32, IKK-beta (Homo sapiens, UniProt O14920)
T32 construct: purchased Eurofins DiscoverX
Experimental: as §1

PAK2 = target: T33, PAK2 (Homo sapiens, UniProt Q13177)
T33 construct: purchased Eurofins DiscoverX (KINOMEscan scanEDGE service)
T33 sequence (Q13177 whole entry): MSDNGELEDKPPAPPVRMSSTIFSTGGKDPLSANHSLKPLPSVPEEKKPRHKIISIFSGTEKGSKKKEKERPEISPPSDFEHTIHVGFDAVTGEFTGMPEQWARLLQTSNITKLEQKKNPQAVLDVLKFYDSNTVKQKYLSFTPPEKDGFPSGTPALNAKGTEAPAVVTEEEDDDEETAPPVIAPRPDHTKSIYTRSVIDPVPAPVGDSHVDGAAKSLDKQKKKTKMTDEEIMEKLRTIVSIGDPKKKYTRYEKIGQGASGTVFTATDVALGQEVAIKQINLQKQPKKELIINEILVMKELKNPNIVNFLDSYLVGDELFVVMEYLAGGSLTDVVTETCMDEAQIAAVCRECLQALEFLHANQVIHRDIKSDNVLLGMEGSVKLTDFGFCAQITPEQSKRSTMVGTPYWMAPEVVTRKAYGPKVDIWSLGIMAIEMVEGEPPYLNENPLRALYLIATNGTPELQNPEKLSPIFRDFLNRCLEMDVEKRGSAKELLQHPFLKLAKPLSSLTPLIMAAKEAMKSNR
Experimental: as §1

JNK1 = target: T34, JNK1 (Homo sapiens, UniProt P45983)
T34 construct: purchased Eurofins DiscoverX
Experimental: as §1

ADCK3 = target: T35, ADCK3 (Homo sapiens, UniProt Q8NI60)
T35 construct: purchased Eurofins DiscoverX
Experimental: as §1

GSK3B = target: T36, GSK3B (Homo sapiens, UniProt P49841)
T36 construct: purchased Eurofins DiscoverX
Experimental: as §1

JNK2 = target: T37, JNK2 (Homo sapiens, UniProt P45984)
T37 construct: purchased Eurofins DiscoverX
Experimental: as §1

SNARK = target: T38, SNARK (Homo sapiens, UniProt Q9H093)
T38 construct: purchased Eurofins DiscoverX KINOMEscan scanEDGE
T38 sequence (Q9H093 whole entry): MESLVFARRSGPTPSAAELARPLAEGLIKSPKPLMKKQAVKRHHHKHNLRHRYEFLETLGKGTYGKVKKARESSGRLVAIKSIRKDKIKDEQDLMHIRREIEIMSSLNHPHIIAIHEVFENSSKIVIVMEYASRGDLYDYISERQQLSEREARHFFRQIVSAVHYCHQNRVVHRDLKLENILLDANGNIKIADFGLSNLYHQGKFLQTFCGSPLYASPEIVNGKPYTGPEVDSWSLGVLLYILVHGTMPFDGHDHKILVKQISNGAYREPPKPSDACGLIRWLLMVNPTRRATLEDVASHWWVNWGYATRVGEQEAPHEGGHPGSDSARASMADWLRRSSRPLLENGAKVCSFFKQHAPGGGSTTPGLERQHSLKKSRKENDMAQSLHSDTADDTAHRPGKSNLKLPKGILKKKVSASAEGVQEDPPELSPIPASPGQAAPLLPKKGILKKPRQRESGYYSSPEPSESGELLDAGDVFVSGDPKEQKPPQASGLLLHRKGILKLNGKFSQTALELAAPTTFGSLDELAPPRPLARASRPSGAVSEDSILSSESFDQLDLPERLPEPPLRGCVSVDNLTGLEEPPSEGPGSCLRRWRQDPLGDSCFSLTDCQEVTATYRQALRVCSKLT
Experimental: as §1

PRKCE = target: T39, PRKCE (Homo sapiens, UniProt Q02156)
T39 construct: purchased Eurofins DiscoverX KINOMEscan scanEDGE
Experimental: as §1

COc1ccc2c3ccnc(C)c3n(CCN(C)C)c2c1.O=C(O)/C=C/C(=O)O [HTW_A_8 fumarate, 2-(7-methoxy-1-methyl-9H-pyrido[3,4-b]indol-9-yl)-N,N-dimethylethan-1-amine Fumarate Salt (2:3)]
remaining binding at 10 µM (MAP3K4): 100% | remaining binding at 10 µM (PIK3CA): 100% | remaining binding at 10 µM (MKNK2): 100% | remaining binding at 10 µM (BTK): 100% | remaining binding at 10 µM (CDK11): 95% | remaining binding at 10 µM (CHEK1): 93% | remaining binding at 10 µM (PAK4): 100% | remaining binding at 10 µM (BRAF): 100% | remaining binding at 10 µM (PLK1): 100% | remaining binding at 10 µM (AXL): 97% | remaining binding at 10 µM (CSNK1G2): 86% | remaining binding at 10 µM (TRKA): 93% | remaining binding at 10 µM (VEGFR2): 100% | remaining binding at 10 µM (SRC): 99% | remaining binding at 10 µM (PKAC-alpha): 97% | remaining binding at 10 µM (CDK2): 100% | remaining binding at 10 µM (PDGFRB): 100% | remaining binding at 10 µM (PIM3): 96% | remaining binding at 10 µM (PDPK1): 76% | remaining binding at 10 µM (AURKB): 100% | remaining binding at 10 µM (ERBB2): 100% | remaining binding at 10 µM (TGFBR1): 90% | remaining binding at 10 µM (FLT3): 85% | remaining binding at 10 µM (AKT1): 96% | remaining binding at 10 µM (ALK): 79% | remaining binding at 10 µM (FAK): 100% | remaining binding at 10 µM (ROCK2): 73% | remaining binding at 10 µM (KIT(D816V)): 100% | remaining binding at 10 µM [1]: 99% | remaining binding at 10 µM (EGFR): 84% | remaining binding at 10 µM (SRPK3): 81% | remaining binding at 10 µM (IKK-beta): 100% | remaining binding at 10 µM (PAK2): 96% | remaining binding at 10 µM (JNK1): 100% | remaining binding at 10 µM (ADCK3): 100% | remaining binding at 10 µM (GSK3B): 100% | remaining binding at 10 µM (JNK2): 81% | remaining binding at 10 µM (SNARK): 100% | remaining binding at 10 µM (PRKCE): 100%
